The results in this text go back to ChEMBL document CHEMBL3046675, “Synthesis and Octopaminergic-Agonist Activity of 2-(Arylimino)oxazolidines and 2-(Substituted Benzylamino)-2-oxazolines” (J Pestic Sci, 1996).

Data set [1] deals with T1, Octopamine receptor (Periplaneta americana) (UniProt Q7YWB7).
T1 sequence (whole entry): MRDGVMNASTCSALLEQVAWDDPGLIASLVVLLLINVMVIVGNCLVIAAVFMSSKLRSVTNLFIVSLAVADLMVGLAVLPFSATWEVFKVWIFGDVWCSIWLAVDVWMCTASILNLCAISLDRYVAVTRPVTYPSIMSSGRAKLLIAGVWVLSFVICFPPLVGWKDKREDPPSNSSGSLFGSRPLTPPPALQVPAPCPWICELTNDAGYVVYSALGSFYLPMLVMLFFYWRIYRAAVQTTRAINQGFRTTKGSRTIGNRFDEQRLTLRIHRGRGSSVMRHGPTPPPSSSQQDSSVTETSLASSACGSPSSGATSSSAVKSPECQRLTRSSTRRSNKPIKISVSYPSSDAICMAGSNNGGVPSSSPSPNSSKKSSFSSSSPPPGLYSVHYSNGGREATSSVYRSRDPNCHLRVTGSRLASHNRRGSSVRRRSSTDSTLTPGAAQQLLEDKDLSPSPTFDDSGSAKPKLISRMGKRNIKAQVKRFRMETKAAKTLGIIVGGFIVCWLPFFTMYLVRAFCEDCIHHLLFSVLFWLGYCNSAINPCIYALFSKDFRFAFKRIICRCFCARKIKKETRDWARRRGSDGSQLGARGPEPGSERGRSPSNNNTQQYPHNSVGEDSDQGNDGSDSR
The data set can be described thus: Agonist activity at Periplaneta americana (American cockroach) thoracic nerve cord octopaminergic receptor assessed as induction of adenylate cyclase-mediated cAMP production per mg protein at 100 uM by radioimmunoassay.

Data set [2] deals with T1, Octopamine receptor (Periplaneta americana). The experiment in a line: Agonist activity at Periplaneta americana (American cockroach) thoracic nerve cord octopaminergic receptor assessed as induction of adenylate cyclase-mediated cAMP production per mg protein at 100 uM by radioimmunoassay relative to octopamine.
Data set [3] shares this target. The data set can be described thus: Agonist activity at Periplaneta americana (American cockroach) thoracic nerve cord octopaminergic receptor assessed as induction of adenylate cyclase-mediated cAMP production per mg protein by radioimmunoassay.
For data set [4] the target is unchanged. The experiment in a line: Agonist activity at Periplaneta americana (American cockroach) thoracic nerve cord octopaminergic receptor assessed as induction of adenylate cyclase-mediated cAMP production per mg protein at 10 uM by radioimmunoassay.
Data set [5] has the same target. The experiment in a line: Agonist activity at Periplaneta americana (American cockroach) thoracic nerve cord octopaminergic receptor assessed as induction of adenylate cyclase-mediated cAMP production per mg protein at 10 uM by radioimmunoassay relative to octopamine.
Substrate in data set [6]: Clc1ccc(CNC2=NCCO2)cc1Cl
The data set can be described thus: (§1) Agonist activity at Periplaneta americana (American cockroach) thoracic nerve cord octopaminergic receptor assessed as induction of adenylate cyclase-mediated cAMP production per mg protein by radioimmunoassay relative to octopamine.

Substrate in data set [7]: CCc1cccc(CC)c1/N=C1/NCCO1
The description is as §1.

Substrate in data set [8]: Clc1ccc(CNC2=NCCS2)cc1Cl
Described as §1.

On to `Cc1cccc(CNC2=NCCO2)c1`, for which the Activity in data set [1] stood at 158 pmol/min. In data set [2], the max activation was determined as 9.2%.

Take `COc1ccc(CNC2=NCCO2)cc1`: the Activity in data set [1] turned out to be 199 pmol/min. In addition, in data set [2], the max activation stood at 17%.

In the case of `Clc1cccc(/N=C2/NCCO2)c1`, the Activity in data set [1] came out at 111 pmol/min. Further, the max activation in data set [2] worked out at 0.2%.

With `Clc1cccc(/N=C2/NCCO2)c1Cl`, the Activity in data set [1] came out at 121 pmol/min. The max activation in data set [2] came to 2%.

Take `Clc1ccc(CNC2=NCCO2)cc1Cl`: the Activity in data set [1] was determined as 180 pmol/min. Further, the Ka in data set [3] amounted to 2.3 µM. Also, the max activation in data set [2] was found to be 13.5%.

Regarding `Cc1cc(Cl)ccc1/N=C1/NCCO1`, in data set [1], the Activity was determined as 204 pmol/min. Moreover, the Ka in data set [3] was determined as 0.18 µM. For the same molecule, in data set [2], the max activation turned out to be 17.9%.

Consider `Cc1cc(Br)ccc1/N=C1/NCCO1`, for which, in data set [1], the Activity came to 214 pmol/min. Further, the Ka in data set [3] worked out at 0.19 µM. Moreover, the max activation in data set [2] was determined as 19.9%.

On to `FC(F)(F)c1ccc(C(F)(F)F)c(/N=C2/NCCO2)c1`, for which the Activity in data set [1] was determined as 88.3 pmol/min. Moreover, the max activation in data set [2] was -4.2%.

For `Clc1ccc(CNC2=NCCO2)cc1`, the Activity in data set [1] was 275 pmol/min. Further, in data set [2], the max activation was 31.7%.

As to `CCc1ccccc1/N=C1/NCCO1`, in data set [1], the Activity came out at 84.1 pmol/min. For the same molecule, the max activation in data set [2] was -5%.

Regarding `Brc1ccccc1CNC1=NCCO1`, in data set [1], the Activity turned out to be 164 pmol/min. Moreover, in data set [2], the max activation amounted to 10.4%.

Regarding `CCc1cccc(CC)c1/N=C1/NCCO1`, the Activity in data set [1] was found to be 365 pmol/min. Besides, the Ka in data set [3] stood at 0.44 µM. Further, the max activation in data set [2] worked out at 49%.

As to `FC(F)(F)c1ccccc1CNC1=NCCO1`, the Activity in data set [1] came out at 137 pmol/min. The max activation in data set [2] worked out at 5.1%.

Consider `Clc1cc(Br)ccc1/N=C1/NCCO1`, for which the Activity in data set [1] was 66.4 pmol/min. Also, the max activation in data set [2] was -8.4%.

With `COc1ccc(CNC2=NCCO2)c(OC)c1`, the Activity in data set [1] is 161 pmol/min. In data set [2], the max activation was found to be 9.8%.

Regarding `CCc1ccc(/N=C2/NCCO2)cc1`, the Activity in data set [1] stood at 170 pmol/min. The Ka in data set [3] came out at 36 µM. Also, the max activation in data set [2] turned out to be 11.5%.

Turning to `FC(F)(F)c1ccc(CNC2=NCCO2)cc1`, the Activity in data set [1] turned out to be 147 pmol/min. Further, the max activation in data set [2] was 7%.

As to `COc1cccc(CNC2=NCCO2)c1`, in data set [1], the Activity stood at 91.5 pmol/min. In addition, in data set [2], the max activation is -3.6%.

Turning to `Fc1cc(F)c(/N=C2/NCCO2)c(F)c1`, the Activity in data set [1] was determined as 123 pmol/min. Further, in data set [2], the max activation turned out to be 2.5%.

For `Fc1ccc(CNC2=NCCO2)cc1`, in data set [1], the Activity was 168 pmol/min. The max activation in data set [2] was determined as 11.2%.

Take `Brc1cc(Br)c(/N=C2/NCCO2)c(Br)c1`: in data set [1], the Activity was 87.4 pmol/min. In addition, the max activation in data set [2] is -4.4%.

`Fc1ccc(F)c(CNC2=NCCO2)c1`: the Activity in data set [1] was found to be 211 pmol/min. The max activation in data set [2] amounted to 19.3%.

Consider `COc1cc(/N=C2/NCCO2)cc(OC)c1OC`, for which the Activity in data set [1] came to 61.2 pmol/min. Also, the max activation in data set [2] is -9.4%.

As for `Clc1cccc(CNC2=NCCO2)c1`, the Activity in data set [4] worked out at 252 pmol/min; in data set [5], 27.2%. Further, the Ka in data set [3] came out at 0.16 µM.

On to `Clc1ccc(CNC2=NCCS2)cc1Cl`, for which the Ka in data set [3] was determined as 0.4 µM.

As for `Clc1ccc(/N=C2/NCCO2)c(Cl)c1Cl`, the Activity in data set [1] came to 189 pmol/min. In addition, the max activation in data set [2] was 15.1%.

In the case of `Clc1ccccc1CNC1=NCCO1`, in data set [1], the Activity was 200 pmol/min. Besides, the max activation in data set [2] is 17.4%.

Regarding `O=[N+]([O-])c1cccc(CNC2=NCCO2)c1`, the Activity in data set [1] came to 206 pmol/min. In data set [2], the max activation was 18.4%.

Regarding `NCC(O)c1ccc(O)cc1` (stereo not given), the Activity in data set [1] worked out at 630 pmol/min. For the same molecule, the Ka in data set [3] came out at 7.6 µM.

`Cc1ccc(CNC2=NCCO2)cc1`: in data set [1], the Activity stood at 293 pmol/min. For the same molecule, the max activation in data set [2] was 35.2%.

On to `FC(F)(F)c1cccc(CNC2=NCCO2)c1`, for which, in data set [1], the Activity came to 200 pmol/min. Also, in data set [2], the max activation was found to be 17.2%.

For `COc1cccc(CNC2=NCCO2)c1OC`, the Activity in data set [1] is 157 pmol/min. Besides, the max activation in data set [2] stood at 8.9%.

As to `Fc1cccc(F)c1/N=C1/NCCO1`, the Activity in data set [1] was 109 pmol/min. Moreover, the max activation in data set [2] was -0.3%.

`CCc1cccc(CC)c1NC1=NCCN1`: the Ka in data set [3] turned out to be 0.44 µM.

Take `FC(F)(F)c1ccc(/N=C2/NCCO2)cc1`: the Activity in data set [1] was 145 pmol/min. Further, the max activation in data set [2] worked out at 6.6%.

As for `COc1ccccc1CNC1=NCCO1`, in data set [1], the Activity was 146 pmol/min. Further, the max activation in data set [2] stood at 6.9%.

As to `Fc1ccccc1CNC1=NCCO1`, the Activity in data set [1] was 184 pmol/min. Moreover, the max activation in data set [2] was determined as 14.2%.

Turning to `Clc1ccc(CNC2=NCCO2)c(Cl)c1`, the Activity in data set [1] was 172 pmol/min. In addition, the max activation in data set [2] was found to be 11.8%.

`Fc1ccc(F)c(/N=C2/NCCO2)c1`: the Activity in data set [1] turned out to be 70.3 pmol/min. Also, the max activation in data set [2] was -7.7%.

B1: Octopamine receptor (Periplaneta americana), Q7YWB7 (protein)
chain: MRDGVMNASTCSALLEQVAWDDPGLIASLVVLLLINVMVIVGNCLVIAAVFMSSKLRSVTNLFIVSLAVADLMVGLAVLPFSATWEVFKVWIFGDVWCSIWLAVDVWMCTASILNLCAISLDRYVAVTRPVTYPSIMSSGRAKLLIAGVWVLSFVICFPPLVGWKDKREDPPSNSSGSLFGSRPLTPPPALQVPAPCPWICELTNDAGYVVYSALGSFYLPMLVMLFFYWRIYRAAVQTTRAINQGFRTTKGSRTIGNRFDEQRLTLRIHRGRGSSVMRHGPTPPPSSSQQDSSVTETSLASSACGSPSSGATSSSAVKSPECQRLTRSSTRRSNKPIKISVSYPSSDAICMAGSNNGGVPSSSPSPNSSKKSSFSSSSPPPGLYSVHYSNGGREATSSVYRSRDPNCHLRVTGSRLASHNRRGSSVRRRSSTDSTLTPGAAQQLLEDKDLSPSPTFDDSGSAKPKLISRMGKRNIKAQVKRFRMETKAAKTLGIIVGGFIVCWLPFFTMYLVRAFCEDCIHHLLFSVLFWLGYCNSAINPCIYALFSKDFRFAFKRIICRCFCARKIKKETRDWARRRGSDGSQLGARGPEPGSERGRSPSNNNTQQYPHNSVGEDSDQGNDGSDSR
For B1, the Vmax in data set [6] was 29%; in data set [7], 58%; in data set [8] it was 53%.
